According to patent US6034064A, “Peptides and therapeutic agent for autoimmune diseases containing the same” (Hoechst Pharmaceuticals & Chemicals K.K., priority 1995, dated 2000):
No end group written: not given here.

What was measured:
[1] = system: anti-OVA antibody production; experiment: Suppressive effect on anti-OVA antibody production in mice (ELISA of serum IgG); type: in vivo, mouse (Balb/c); set-up: Anti OVA Ig-G antibody titer: dose or concentration left out as unconfirmed; details: for anti-OVA antibody production compared with the non-administered group and Peptide (I) administered group / anti-OVA antibody production compared with Peptide (I) administered group: Example 8
Procedure: Day 5 and day 3 prior to the antigen administration, Peptide (I) composed of 9 amino acid residues as indicated by Sequence ID No. 1 in the Sequence Listing of the present invention and a synthetic peptide 15 composed of 15 amino acid residues derived from clone 17.2 TcR, which peptide had been reported by Mohapatra et al. as described above, 100 g each, were dissolved in 200 of physiological saline and each solution thus obtained was subcutaneously administered to 9-week-old Balb/c mice. As a control, a non-administered group to which the same amount of physiological saline was administered was employed. In 200 l of physiological saline, 100 g of OVA (Sigma Chemical Co.) were dissolved, followed by subcutaneous administration. Blood was collected on day 21 after antigen administration and an antibody titer was measured by the method described below.
OVA was diluted to 10 µg/ml with phosphate buffered saline (PBS) and 50 l portions of the solution were poured in a 96-well microplate. The coating operation was conducted overnight at […]. The microplate was then washed three times with a 0.05% Tween®-20-containing PBS (T-PBS). 200 l portions of 0.5% casein-containing tris buffered physiological saline (casein TBS) were poured in each well and the microplate was allowed to stand at room temperature for one hour. The microplate was then washed three times with T-PBS. After the serum of the blood collected from the mice was diluted to 1/200 with 0.5% casein TBS, 50 l portions of the diluted serum were poured in each well and the plate was allowed to stand for one hour (primary reaction).
After the completion of the primary reaction, the microplate was washed three times with T-PBS. Fifty l portions of anti-mouse IgG-peroxidase-labeled antibody (TAGO Co.) diluted to 1/4000 with 0.5% casein TBS were poured in each well, followed by reaction at room temperature for one hour (secondary reaction). After the completion of the secondary reaction, the plate was washed three times again. Fifty l portions of a substrate liquid/chromogen (chromogen substrate: Behringwerke AG) were poured in each well, followed by reaction at room temperature for 30 minutes. After the completion of the reaction, 0.5N diluted sulfuric acid was added to terminate the reaction and an absorbance at 450 nm was measured by a calorimeter ("BEP-II", product of Behringwerke AG/Germany) with an absorbance at 650 nm as a control.
In a similar manner to Example 2, the suppressive effects of Peptides (I), (VII) to (XIV) on the anti-OVA antibody production in mice were measured.

[2] = system: EAE model mice; experiment: Onset suppressive effect on EAE model mice; type: in vivo, mouse (SJL)
Procedure: As an antigen, guinea pig spinal chord homogenate was employed. The guinea pig spinal chord homogenate was diluted with PBS to be 6.6 mg/ml, followed by the addition of the equivalent amount of Freunds complete adjuvant. The resulting mixture was formed into an emulsion by an ultrasonic sonicator. The resulting emulsion was administered to two areas under the lateral skin in a total amount of 300 μl. Day 5 and day 3 prior to antigen administration, and 5 days a week for 4 weeks after antigen administration, the solution of Peptide (I) dissolved in 100 μl physiological saline was subcutaneously administered to a 14-week old SJL mouse. Incidentally, in order to increase an onset ratio, […] of pertussis toxin (PTX) were intravenously administered as an enhancer on the day of antigen administration and two days after antigen administration. Observation of the onset was performed from day 14 to day 28 after primary antigen administration. The onset was scored based on the following standard criteria [Pettinelli, C. B., Fritz, D. E., and McFarlin, D. E. J. Immunl., 129, No. 3, 1024-1028 (1982)]. In Table 3, values of average score+standard deviation (SD) in each administration group on day 22, day 25 and day 28 after primary antigen administration are shown.
Score 1: Slight paralysis of hind leg with tail weakness
Score 2: Moderate paralysis of hind leg with tail weakness
Score 3: Total paralysis of hind leg
Score 4: Slight paralysis of forward leg with total paralysis of hind leg
Score 5: Total paralysis of all leg
Score 6: Death from paralysis

[3] = system: anti-KLH antibody production; experiment: Suppressive effect on anti-KLH antibody production in mice (ELISA of serum IgG); type: in vivo, mouse (Balb/c); details: Example 7
Procedure: Day 5 and day 3 prior to the antigen administration, 100 μg of each Peptide (I) to (VI) of the present invention composed of 9 amino acid residues indicated by Sequence ID No. 1 in the Sequence Listing were dissolved in 200 μl of physiological saline. The resulting solution was subcutaneously administered to 9-week-old Balb/c mice. As a control, a non-administered group to which the same amount of physiological saline was administered was employed. In 200 μl of physiological saline, 25 μg of KLH were dissolved as an antigen and the resulting solution was subcutaneously administered. The blood was collected on day 21 after antigen administration and an antibody titer was measured by the method which is described below.
KLH was diluted to 10 μg/ml with a phosphate buffered physiological saline (PBS). Fifty μl portions of the resulting solution were poured into a 96-well microplate and the plate was allowed to stand at 4iC overnight. After the microplate was washed three times with 0.05% Tween®-20-containing PBS (T-PBS), 200 μl portions of 0.5% casein tris-buffered physiological saline (casein TBS) were poured into wells, respectively. […] The microplate was washed three times with T-PBS and 50 μl portions of the mouse serum diluted to 1/200 with casein TBS were poured into the wells, followed by reaction for one hour (primary reaction).
The resulting microplate was washed three times with T-PBS, to which 50 μl portions of an anti-mouse IgG-peroxidase-labeled antibody (TAGO Co.) diluted to 1/4000 with casein TBS were poured. The reaction was effected at room temperature for one hour (secondary reaction). After the completion of the secondary reaction, the plate was washed three times again. Fifty μl portions of a substrate liquid/chromogen (chromogen substrate: Behringwerke AG) were poured into wells, respectively, followed by reaction at room temperature for 30 minutes. After the completion of the reaction, 0.5N diluted sulfuric acid was added to terminate the reaction and an absorbance at 450 nm was measured by a calorimeter ("BEP-II ", product of Behringwerke AG/Germany) with the absorbance at 650 nm as a control.
In a similar manner to Example 3, suppressive effects of Peptides (I), (VII) to (XV) on anti-KLH antibody production in mice were studied.

AKLTFGKGT [Peptide (I), Ala-Lys-Leu-Thr-Phe-Gly-Lys-Gly-Thr]
Anti OVA Ig-G antibody titer ([1]; Example 2, Table 1, peptide s.c. day 5 and day 3 prior to OVA, blood day 21, 8 mice per group): 8.8 ± 10.8 unit
anti-OVA antibody production compared with the non-administered group ([1]; Example 2, 8 mice per group): significantly suppressed
EAE average score ± SD ([2]; 1 μg/body s.c., Day 22): 1.6 ± 1.8 score
EAE average score ± SD ([2]; 1 μg/body s.c., Day 25): 0.9 ± 1.1 score
EAE average score ± SD ([2]; 1 μg/body s.c., Day 28): 1.8 ± 1.9 score
EAE average score ± SD ([2]; 5 μg/body s.c., Day 22): 0.4 ± 0.7 score
EAE average score ± SD ([2]; 5 μg/body s.c., Day 25): 1.0 ± 1.1 score
EAE average score ± SD ([2]; 5 μg/body s.c., Day 28): 0.7 ± 0.8 score
onset of EAE compared with physiological saline group ([2]; 5 μg/body, day 25 and day 28, significant difference of 5%): suppressed
EAE average score ± SD ([2]; 25 μg/body s.c., Day 22 after primary antigen administration): 0.3 ± 0.4 score
EAE average score ± SD ([2]; 25 μg/body s.c., Day 25): 0.1 ± 0.3 score
EAE average score ± SD ([2]; 25 μg/body s.c., Day 28): 0.0 ± 0.0 score
onset of EAE compared with physiological saline group ([2]; 25 μg/body, from day 22 significant difference of 5%, from day 25 of 1%): suppressed
onset of EAE ([2]; administration of Peptide (I), overall): suppressed

AKLTFAKG [Peptide (X), Ala-Lys-Leu-Thr-Phe-Ala-Lys-Gly]
anti-KLH antibody production compared with the non-administered group and Peptide (I) administered group [3]: significantly suppressed

AKLAFGKG [Peptide (IX), Ala-Lys-Leu-Ala-Phe-Gly-Lys-Gly]
anti-OVA antibody production compared with the non-administered group and Peptide (I) administered group [1]: significantly suppressed
anti-KLH antibody production compared with the non-administered group and Peptide (I) administered group [3]: significantly suppressed

AKLTFGKA [Peptide (XII), Ala-Lys-Leu-Thr-Phe-Gly-Lys-Ala]
anti-KLH antibody production compared with Peptide (I) administered group [3]: not suppressed

AKATFGKG [Peptide (XIII), Ala-Lys-Ala-Thr-Phe-Gly-Lys-Gly]
anti-OVA antibody production compared with Peptide (I) administered group [1]: not suppressed
anti-KLH antibody production compared with Peptide (I) administered group [3]: not suppressed

AKLTFGAG [Peptide (XI), Ala-Lys-Leu-Thr-Phe-Gly-Ala-Gly]
anti-OVA antibody production compared with the non-administered group and Peptide (I) administered group [1]: significantly suppressed
anti-KLH antibody production compared with the non-administered group and Peptide (I) administered group [3]: significantly suppressed

AKLTFGKG [Peptide (VII), Ala-Lys-Leu-Thr-Phe-Gly-Lys-Gly]
anti-OVA antibody production compared with the non-administered group and Peptide (I) administered group [1]: significantly suppressed
anti-KLH antibody production compared with the non-administered group and Peptide (I) administered group [3]: significantly suppressed

AALTFGKG [Peptide (VIII), Ala-Ala-Leu-Thr-Phe-Gly-Lys-Gly]
anti-KLH antibody production compared with Peptide (I) administered group [3]: not suppressed

AKLTAGKG [Peptide (XIV), Ala-Lys-Leu-Thr-Ala-Gly-Lys-Gly]
anti-OVA antibody production compared with Peptide (I) administered group [1]: not suppressed
anti-KLH antibody production compared with Peptide (I) administered group [3]: not suppressed

KLTFGKG [Peptide (XV), Lys-Leu-Thr-Phe-Gly-Lys-Gly]
anti-KLH antibody production compared with Peptide (I) administered group [3]: not suppressed
